How the values were obtained:
[1] = target: Mitogen-activated protein kinase 3 (Homo sapiens) (UniProt P27361); experiment: Inhibition of compound against mitogen-activated protein kinase 1; design: scale not given: the % may be the effect or the level left
[2] = target: T1, Mitogen-activated protein kinase 12 (Homo sapiens) (UniProt P53778); experiment: Inhibition of Stress activated protein kinase 3; design: scale not given: the % may be the effect or the level left
T1 sequence (whole entry): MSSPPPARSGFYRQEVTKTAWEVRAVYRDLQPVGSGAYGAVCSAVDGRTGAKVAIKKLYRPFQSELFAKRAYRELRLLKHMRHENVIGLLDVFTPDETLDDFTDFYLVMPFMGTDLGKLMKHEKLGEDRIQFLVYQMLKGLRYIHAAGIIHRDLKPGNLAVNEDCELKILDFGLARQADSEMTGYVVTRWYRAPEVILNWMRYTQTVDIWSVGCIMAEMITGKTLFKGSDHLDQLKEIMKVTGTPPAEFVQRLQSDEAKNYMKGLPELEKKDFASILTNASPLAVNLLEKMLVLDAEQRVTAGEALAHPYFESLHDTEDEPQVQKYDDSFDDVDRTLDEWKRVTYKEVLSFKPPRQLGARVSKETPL

[3] = target: Mitogen-activated protein kinase 10 (Rattus norvegicus) (UniProt P49187); experiment: Inhibition of c-Jun N-terminal kinase 3; design: scale not given: the % may be the effect or the level left
Chain of Mitogen-activated protein kinase 10 (Rattus norvegicus) (P49187 whole entry, looked up): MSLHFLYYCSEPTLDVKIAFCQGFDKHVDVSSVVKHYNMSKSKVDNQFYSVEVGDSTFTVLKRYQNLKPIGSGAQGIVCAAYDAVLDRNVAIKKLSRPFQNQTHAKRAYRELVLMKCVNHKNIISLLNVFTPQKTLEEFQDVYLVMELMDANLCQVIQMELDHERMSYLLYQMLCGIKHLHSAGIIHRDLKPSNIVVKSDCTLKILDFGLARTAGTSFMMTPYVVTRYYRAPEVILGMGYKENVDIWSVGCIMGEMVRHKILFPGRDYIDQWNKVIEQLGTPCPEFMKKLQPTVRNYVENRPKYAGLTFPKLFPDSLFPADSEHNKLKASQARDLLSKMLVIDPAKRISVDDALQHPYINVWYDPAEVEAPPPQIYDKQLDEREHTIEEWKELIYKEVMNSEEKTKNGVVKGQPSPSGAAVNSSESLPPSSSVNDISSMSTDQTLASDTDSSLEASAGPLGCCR

[4] = target: Insulin receptor (Homo sapiens) (UniProt P06213); experiment: Inhibition of IR kinase; design: scale not given: the % may be the effect or the level left
Chain of Insulin receptor (Homo sapiens) (P06213 28-758 limits assumed): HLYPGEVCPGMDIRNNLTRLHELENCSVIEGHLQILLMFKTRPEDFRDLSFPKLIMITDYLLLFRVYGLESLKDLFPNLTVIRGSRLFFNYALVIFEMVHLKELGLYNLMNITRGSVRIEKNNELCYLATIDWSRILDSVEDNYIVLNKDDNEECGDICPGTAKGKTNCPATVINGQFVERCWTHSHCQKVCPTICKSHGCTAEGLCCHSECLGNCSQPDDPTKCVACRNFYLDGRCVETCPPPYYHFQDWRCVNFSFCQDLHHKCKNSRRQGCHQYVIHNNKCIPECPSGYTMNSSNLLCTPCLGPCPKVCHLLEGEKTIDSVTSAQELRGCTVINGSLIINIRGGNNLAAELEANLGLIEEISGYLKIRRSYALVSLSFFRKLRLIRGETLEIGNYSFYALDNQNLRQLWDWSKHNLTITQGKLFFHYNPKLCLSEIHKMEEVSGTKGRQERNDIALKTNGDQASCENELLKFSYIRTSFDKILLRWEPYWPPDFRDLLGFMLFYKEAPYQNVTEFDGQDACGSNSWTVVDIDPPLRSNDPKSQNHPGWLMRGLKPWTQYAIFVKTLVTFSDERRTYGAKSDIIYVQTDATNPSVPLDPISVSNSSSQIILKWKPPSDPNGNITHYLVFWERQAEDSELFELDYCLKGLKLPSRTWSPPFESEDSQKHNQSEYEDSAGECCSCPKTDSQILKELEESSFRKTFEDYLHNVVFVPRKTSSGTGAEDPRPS
Chain of Insulin receptor (Homo sapiens) (P06213 763-1382 limits assumed): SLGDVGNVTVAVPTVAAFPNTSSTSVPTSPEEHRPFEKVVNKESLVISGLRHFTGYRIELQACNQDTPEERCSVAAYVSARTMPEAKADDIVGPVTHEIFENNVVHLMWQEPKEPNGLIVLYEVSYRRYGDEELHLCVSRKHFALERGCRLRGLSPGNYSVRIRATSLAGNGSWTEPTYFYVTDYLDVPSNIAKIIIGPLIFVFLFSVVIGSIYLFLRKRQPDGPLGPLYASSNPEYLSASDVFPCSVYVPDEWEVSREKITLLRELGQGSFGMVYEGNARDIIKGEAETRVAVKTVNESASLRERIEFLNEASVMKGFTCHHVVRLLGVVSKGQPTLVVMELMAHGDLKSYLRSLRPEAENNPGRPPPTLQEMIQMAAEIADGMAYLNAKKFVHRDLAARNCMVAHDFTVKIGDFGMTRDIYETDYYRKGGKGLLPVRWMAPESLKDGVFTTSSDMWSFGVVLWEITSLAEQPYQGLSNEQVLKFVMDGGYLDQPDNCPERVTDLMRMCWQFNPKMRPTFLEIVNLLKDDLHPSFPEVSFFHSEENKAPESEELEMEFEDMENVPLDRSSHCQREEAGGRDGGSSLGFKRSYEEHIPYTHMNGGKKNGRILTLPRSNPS

[5] = target: Fibroblast growth factor receptor 3 (Homo sapiens) (UniProt P22607); experiment: Inhibition of Fibroblast growth factor receptor 3; design: scale not given: the % may be the effect or the level left
Chain of Fibroblast growth factor receptor 3 (Homo sapiens) (P22607 23-806 limits assumed): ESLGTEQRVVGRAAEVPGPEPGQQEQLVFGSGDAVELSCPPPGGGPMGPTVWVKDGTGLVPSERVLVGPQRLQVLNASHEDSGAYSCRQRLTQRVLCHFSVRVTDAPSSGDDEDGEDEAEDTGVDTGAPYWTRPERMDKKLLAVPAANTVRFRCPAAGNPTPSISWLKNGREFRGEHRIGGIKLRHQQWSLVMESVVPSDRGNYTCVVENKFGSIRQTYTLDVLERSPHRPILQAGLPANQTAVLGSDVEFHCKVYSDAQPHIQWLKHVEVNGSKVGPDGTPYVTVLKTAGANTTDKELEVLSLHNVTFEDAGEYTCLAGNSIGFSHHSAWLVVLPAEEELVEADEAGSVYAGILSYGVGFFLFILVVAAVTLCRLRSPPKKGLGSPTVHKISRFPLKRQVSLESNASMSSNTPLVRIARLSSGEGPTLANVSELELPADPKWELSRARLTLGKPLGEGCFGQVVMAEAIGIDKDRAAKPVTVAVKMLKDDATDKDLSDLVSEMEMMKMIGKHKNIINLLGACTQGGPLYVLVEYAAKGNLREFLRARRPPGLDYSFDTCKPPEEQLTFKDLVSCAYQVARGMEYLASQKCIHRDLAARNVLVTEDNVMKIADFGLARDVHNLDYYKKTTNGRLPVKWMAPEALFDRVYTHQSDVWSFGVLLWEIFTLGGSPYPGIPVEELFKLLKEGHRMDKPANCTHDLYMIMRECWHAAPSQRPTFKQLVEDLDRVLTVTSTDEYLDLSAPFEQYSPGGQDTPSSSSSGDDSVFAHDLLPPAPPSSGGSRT

[6] = target: Platelet-derived growth factor receptor alpha (Homo sapiens) (UniProt P16234); experiment: Inhibition of PDGFRalpha; design: scale not given: the % may be the effect or the level left
[7] = target: Casein kinase II (Homo sapiens) (UniProt P67870+P68400+P19784); experiment: Inhibition of Casein kinase 2; assay type: protein-complex assay; design: scale not given: the % may be the effect or the level left
[8] = target: Proto-oncogene tyrosine-protein kinase Src (Homo sapiens) (UniProt P12931); experiment: Inhibition of c-Src tyrosine kinase; design: scale not given: the % may be the effect or the level left
[9] = target: T2, Dual specificity mitogen-activated protein kinase kinase 6 (Homo sapiens) (UniProt P52564); experiment: Inhibition of Mitogen activated protein kinase kinase 6; design: scale not given: the % may be the effect or the level left
T2 sequence (whole entry): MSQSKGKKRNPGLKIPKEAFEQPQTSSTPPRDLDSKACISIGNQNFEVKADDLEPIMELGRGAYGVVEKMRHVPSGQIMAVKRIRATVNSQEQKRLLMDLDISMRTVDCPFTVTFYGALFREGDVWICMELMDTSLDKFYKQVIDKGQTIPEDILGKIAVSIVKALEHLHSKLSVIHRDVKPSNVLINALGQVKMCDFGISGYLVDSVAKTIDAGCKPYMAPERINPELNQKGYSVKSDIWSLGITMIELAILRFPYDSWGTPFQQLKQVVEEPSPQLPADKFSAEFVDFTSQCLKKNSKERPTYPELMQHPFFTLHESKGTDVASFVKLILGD

[10] = target: Glycogen synthase kinase-3 beta (Homo sapiens, UniProt P49841); experiment: Inhibition of glycogen synthase kinase-3 beta; design: scale not given: the % may be the effect or the level left
[11] = target: Tyrosine-protein kinase Fes/Fps (Homo sapiens) (UniProt P07332); experiment: Inhibition of Fes kinase; design: scale not given: the % may be the effect or the level left
[12] = target: Ribosomal protein S6 kinase (P70S6K) (Homo sapiens) (UniProt Q9UBS0+P23443); experiment: Inhibition of p70 Ribosomal protein S6 kinase; assay type: protein-complex assay; design: scale not given: the % may be the effect or the level left
[13] = target: Cyclin-dependent kinase 7/ cyclin H (Homo sapiens) (UniProt P51946+P50613); experiment: Inhibition of Cyclin-dependent kinase 7-cyclin H; assay type: protein-complex assay; design: scale not given: the % may be the effect or the level left
[14] = target: Cyclin-dependent kinase 2/cyclin A (Homo sapiens, UniProt P24941); experiment: Inhibition of Cyclin-dependent kinase 2-cyclin A; assay type: protein-complex assay
[15] = target: Cyclin-dependent kinase 2/cyclin E (Homo sapiens) (UniProt P24864+P24941+O96020); experiment: Inhibition of CDK2/cyclin E; assay type: protein-complex assay; design: scale not given: the % may be the effect or the level left
[16] = target: RAC-alpha serine/threonine-protein kinase (Homo sapiens) (UniProt P31749); experiment: Inhibition of PKBalpha; design: scale not given: the % may be the effect or the level left
Chain of RAC-alpha serine/threonine-protein kinase (Homo sapiens) (P31749 whole entry): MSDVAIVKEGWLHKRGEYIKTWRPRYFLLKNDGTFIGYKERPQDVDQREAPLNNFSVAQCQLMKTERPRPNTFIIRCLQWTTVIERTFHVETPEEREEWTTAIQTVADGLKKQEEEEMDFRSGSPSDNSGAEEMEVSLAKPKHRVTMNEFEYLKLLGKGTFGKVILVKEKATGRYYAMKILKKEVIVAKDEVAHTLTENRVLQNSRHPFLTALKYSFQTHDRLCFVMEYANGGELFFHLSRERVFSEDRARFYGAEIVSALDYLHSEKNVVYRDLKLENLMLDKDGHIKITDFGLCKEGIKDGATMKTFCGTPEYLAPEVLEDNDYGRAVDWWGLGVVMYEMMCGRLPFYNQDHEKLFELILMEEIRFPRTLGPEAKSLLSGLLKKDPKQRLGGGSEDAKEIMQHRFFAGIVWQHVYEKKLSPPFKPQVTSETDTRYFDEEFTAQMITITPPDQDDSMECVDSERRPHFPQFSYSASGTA

[17] = target: T3, Dual specificity mitogen-activated protein kinase kinase 4 (Mus musculus) (UniProt P47809); experiment: Inhibition of Mitogen activated protein kinase kinase 4; design: scale not given: the % may be the effect or the level left
T3 sequence (whole entry): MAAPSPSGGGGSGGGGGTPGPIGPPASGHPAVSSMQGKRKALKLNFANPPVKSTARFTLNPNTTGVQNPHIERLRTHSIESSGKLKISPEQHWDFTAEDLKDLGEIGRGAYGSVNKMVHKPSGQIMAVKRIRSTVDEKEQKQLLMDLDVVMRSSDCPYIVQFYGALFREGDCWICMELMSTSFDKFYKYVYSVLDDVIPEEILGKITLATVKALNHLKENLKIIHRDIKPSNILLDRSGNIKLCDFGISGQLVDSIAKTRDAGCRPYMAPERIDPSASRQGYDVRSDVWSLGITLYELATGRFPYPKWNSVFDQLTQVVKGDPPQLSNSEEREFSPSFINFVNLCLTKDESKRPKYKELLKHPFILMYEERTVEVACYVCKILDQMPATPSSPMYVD

[18] = target: Tyrosine-protein kinase CSK (Homo sapiens) (UniProt P41240); experiment: Inhibition of Tyrosine-protein kinase CSK; design: scale not given: the % may be the effect or the level left
[19] = target: Mitogen-activated protein kinase 14 (Homo sapiens) (UniProt Q16539); experiment: Inhibition of Stress activated protein kinase 2a; design: scale not given: the % may be the effect or the level left
[20] = target: Serine/threonine-protein kinase PAK 2 (Homo sapiens) (UniProt Q13177); experiment: Inhibition of PAK2; design: scale not given: the % may be the effect or the level left
[21] = target: Protein kinase C gamma type (Homo sapiens, UniProt P05129); experiment: Inhibition of PKCgamma; design: scale not given: the % may be the effect or the level left
[22] = target: Cyclin-dependent kinase 1/cyclin B (Homo sapiens) (UniProt P06493+P14635+Q8WWL7+O95067); experiment: Inhibition of cyclin-dependent kinase 1-cyclin B; assay type: protein-complex assay; design: scale not given: the % may be the effect or the level left
[23] = target: Mitogen-activated protein kinase 8 (Homo sapiens) (UniProt P45983); experiment: Inhibition of c-Jun N-terminal kinase 1-alpha 1; design: scale not given: the % may be the effect or the level left
Chain of Mitogen-activated protein kinase 8 (Homo sapiens) (P45983 whole entry): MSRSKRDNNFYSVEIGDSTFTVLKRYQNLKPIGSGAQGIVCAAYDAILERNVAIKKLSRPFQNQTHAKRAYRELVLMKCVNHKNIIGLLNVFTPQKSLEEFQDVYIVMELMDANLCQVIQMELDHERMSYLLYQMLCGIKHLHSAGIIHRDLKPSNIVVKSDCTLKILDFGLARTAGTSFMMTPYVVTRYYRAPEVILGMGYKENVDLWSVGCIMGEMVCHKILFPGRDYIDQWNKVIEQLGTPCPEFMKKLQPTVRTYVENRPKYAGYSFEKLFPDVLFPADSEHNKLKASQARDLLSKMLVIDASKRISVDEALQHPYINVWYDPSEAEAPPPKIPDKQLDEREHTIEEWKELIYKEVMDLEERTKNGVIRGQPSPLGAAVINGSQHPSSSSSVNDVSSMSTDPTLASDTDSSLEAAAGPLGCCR

[24] = target: Ribosomal protein S6 kinase alpha-2 (Homo sapiens) (UniProt Q15349); experiment: Inhibition of Ribosomal S6 kinase 2; design: scale not given: the % may be the effect or the level left
[25] = target: Protein kinase C alpha type (Homo sapiens, UniProt P17252); experiment: Inhibitory activity of 10 uM compound against protein kinase C-alpha using histone as substrate
[26] = target: Platelet-derived growth factor receptor beta (Homo sapiens) (UniProt P09619); experiment: Inhibition of PDGFRbeta; design: scale not given: the % may be the effect or the level left
[27] = target: Rho-associated protein kinase 2 (Homo sapiens) (UniProt O75116); experiment: (§1) Inhibition of ROCK-II; design: scale not given: the % may be the effect or the level left
Chain of Rho-associated protein kinase 2 (Homo sapiens) (O75116 whole entry, looked up): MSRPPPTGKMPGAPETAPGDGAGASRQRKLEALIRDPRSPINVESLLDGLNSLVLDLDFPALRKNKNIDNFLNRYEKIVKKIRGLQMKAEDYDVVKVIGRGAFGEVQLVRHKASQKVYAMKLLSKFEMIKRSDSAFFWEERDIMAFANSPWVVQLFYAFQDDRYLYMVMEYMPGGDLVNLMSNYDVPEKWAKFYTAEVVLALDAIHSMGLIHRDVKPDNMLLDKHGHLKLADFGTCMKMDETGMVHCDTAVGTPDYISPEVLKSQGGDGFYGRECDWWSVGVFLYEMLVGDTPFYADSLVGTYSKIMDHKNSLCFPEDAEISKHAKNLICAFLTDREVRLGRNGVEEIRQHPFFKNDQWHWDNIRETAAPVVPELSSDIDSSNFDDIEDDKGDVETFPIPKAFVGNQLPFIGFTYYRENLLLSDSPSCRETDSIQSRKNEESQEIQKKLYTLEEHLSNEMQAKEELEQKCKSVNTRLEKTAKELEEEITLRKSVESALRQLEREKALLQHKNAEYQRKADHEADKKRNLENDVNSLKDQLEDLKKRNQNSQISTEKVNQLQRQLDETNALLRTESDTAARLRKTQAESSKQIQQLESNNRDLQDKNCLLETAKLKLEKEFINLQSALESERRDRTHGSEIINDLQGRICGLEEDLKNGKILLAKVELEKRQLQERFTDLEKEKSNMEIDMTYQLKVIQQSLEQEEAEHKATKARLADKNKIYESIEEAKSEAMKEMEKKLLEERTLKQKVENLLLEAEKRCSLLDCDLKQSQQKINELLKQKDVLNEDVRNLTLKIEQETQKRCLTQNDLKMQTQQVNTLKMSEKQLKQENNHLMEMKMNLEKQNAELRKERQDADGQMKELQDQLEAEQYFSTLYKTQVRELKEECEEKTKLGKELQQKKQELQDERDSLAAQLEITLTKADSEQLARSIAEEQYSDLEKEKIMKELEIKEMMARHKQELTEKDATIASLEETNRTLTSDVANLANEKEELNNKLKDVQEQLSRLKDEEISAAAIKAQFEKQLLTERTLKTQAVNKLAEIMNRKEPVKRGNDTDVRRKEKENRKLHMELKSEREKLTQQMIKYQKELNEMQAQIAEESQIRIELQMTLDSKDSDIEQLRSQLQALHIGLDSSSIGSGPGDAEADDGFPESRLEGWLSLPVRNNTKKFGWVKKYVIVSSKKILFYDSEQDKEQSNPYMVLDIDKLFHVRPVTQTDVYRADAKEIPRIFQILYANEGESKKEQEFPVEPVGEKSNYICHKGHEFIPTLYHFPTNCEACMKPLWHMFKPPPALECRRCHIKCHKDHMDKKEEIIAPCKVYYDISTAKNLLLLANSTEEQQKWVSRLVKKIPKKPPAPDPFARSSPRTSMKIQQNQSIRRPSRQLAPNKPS

[28] = target: Rho-associated protein kinase 2 (Rattus norvegicus) (UniProt Q62868); experiment: as §1; design: scale not given: the % may be the effect or the level left
[29] = target: Tyrosine-protein kinase Fyn (Homo sapiens) (UniProt P06241); experiment: Inhibition of Fyn protein kinase; design: scale not given: the % may be the effect or the level left
[30] = target: CDK6/cyclin D3 (Homo sapiens) (UniProt P30281+Q00534); experiment: Inhibition of Cyclin-dependent kinase 6-cyclin D3; assay type: protein-complex assay; design: scale not given: the % may be the effect or the level left

| Compound | Activity [1] | Activity [2] | Activity [3] | Activity [4] | Activity [5] | Activity [6] | Activity [7] | Activity [8] | Activity [9] | Activity [10] | Activity [11] | Activity [12] | Activity [13] | IC50 [14] | Activity [15] | Activity [16] | Activity [17] | Activity [18] | Activity [19] | Activity [20] | other results |
| --- | --- | --- | --- | --- | --- | --- | --- | --- | --- | --- | --- | --- | --- | --- | --- | --- | --- | --- | --- | --- | --- |
| O=C1NC(=O)C(c2cn(CCCO)c3ncccc23)=C1c1ncc(C(F)(F)F)cc1Cl | 66% | 86% | 76% | 95% | 64% | 86% | 56% | 93% | 86% | 3% | 81% | 88% | 59% | 2.8 µM | 30% | 64% | 87% | 74% | 81% | 78% | Activity [21]: 72%; Activity [22]: 34%; Activity [23]: 80%; Activity [24]: 77%; inhibition [25]: < 50%; Activity [26]: 77%; Activity [27]: 90%; Activity [28]: 97%; Activity [29]: 89%; Activity [30]: 59% |
| COc1ccccc1C1=C(c2cn(CCCNC(=O)OC(C)(C)C)c3ncccc23)C(=O)NC1=O | 81% | 122% | 68% | 94% | 83% | 108% | 103% | 74% | 95% | 0% | 87% | 82% | 60% | 0.068 µM | 3% | 103% | 101% | 95% | 109% | 93% | Activity [21]: 76%; Activity [22]: 3%; Activity [23]: 81%; Activity [24]: 31%; inhibition [25]: < 50%; Activity [26]: 93%; Activity [27]: 78%; Activity [28]: 91%; Activity [29]: 63%; Activity [30]: 24% |
| COCCCn1cc(C2=C(c3ccccc3O)C(=O)NC2=O)c2cccnc21 | 78% | 120% | 52% | 88% | 79% | 99% | 93% | 99% | 83% | 1% | 79% | 87% | 47% | 0.43 µM | 11% | 93% | 86% | 89% | 84% | 94% | Activity [21]: 59%; Activity [22]: 9%; Activity [23]: 75%; Activity [24]: 54%; inhibition [25]: < 50%; Activity [26]: 96%; Activity [27]: 100%; Activity [28]: 94%; Activity [29]: 94%; Activity [30]: 50% |

Reference: ChEMBL document CHEMBL1146654, “3-(7-Azaindolyl)-4-arylmaleimides as potent, selective inhibitors of glycogen synthase kinase-3” (Bioorg Med Chem Lett, 2004)
